Where two headings read alike, the source gives them in different places.
Tests used:
Assay in all cases: KiNativ assay
Type in all cases: binding
Conditions in all cases: H929 live cell
MAP3K1 = MAP3K1 (Homo sapiens (Human), UniProt Q13233)
Method: (§1) Biochemical IC50s of the compounds of the present disclosure against various kinases were measured in a KiNativ assay. Compounds were screened in duplicate at 10 μM in H929 live cell. IC50 was measured via Mass spectroscopy (MS).

NEK9 = NEK9 (Homo sapiens (Human), UniProt Q8TD19)
Method: as §1

AurA, AurB, AurC = test system: AurA, AurB, AurC
Method: as §1

ZAK = ZAK (Homo sapiens (Human), UniProt Q9NYL2)
Sequence of ZAK (Q9NYL2 whole entry): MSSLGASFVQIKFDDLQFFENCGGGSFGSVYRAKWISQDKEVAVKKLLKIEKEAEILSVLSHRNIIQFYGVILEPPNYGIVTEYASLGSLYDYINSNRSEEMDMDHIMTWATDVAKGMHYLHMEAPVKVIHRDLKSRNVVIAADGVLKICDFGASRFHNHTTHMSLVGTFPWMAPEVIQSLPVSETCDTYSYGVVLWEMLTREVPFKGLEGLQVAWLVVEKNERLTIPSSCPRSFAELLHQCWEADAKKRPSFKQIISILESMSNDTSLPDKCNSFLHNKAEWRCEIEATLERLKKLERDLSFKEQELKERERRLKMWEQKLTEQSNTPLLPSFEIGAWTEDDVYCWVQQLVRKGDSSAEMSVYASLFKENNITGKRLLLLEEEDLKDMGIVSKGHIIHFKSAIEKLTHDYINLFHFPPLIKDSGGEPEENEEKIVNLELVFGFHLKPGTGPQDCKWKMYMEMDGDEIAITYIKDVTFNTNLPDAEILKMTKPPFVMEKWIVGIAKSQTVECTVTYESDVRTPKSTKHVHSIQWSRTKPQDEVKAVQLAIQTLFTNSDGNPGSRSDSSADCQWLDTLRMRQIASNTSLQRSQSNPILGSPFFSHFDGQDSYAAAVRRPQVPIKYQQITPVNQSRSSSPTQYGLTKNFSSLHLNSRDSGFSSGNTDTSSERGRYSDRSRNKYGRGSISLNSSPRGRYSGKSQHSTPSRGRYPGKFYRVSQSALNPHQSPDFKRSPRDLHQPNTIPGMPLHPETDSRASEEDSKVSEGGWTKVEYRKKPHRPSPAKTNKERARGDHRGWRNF
Method: as §1

NEK3 = NEK3 (Homo sapiens (Human), UniProt P51956)
Method: as §1

RSK2 domain1 = RSK2 domain1 (Homo sapiens (Human), UniProt P51812)
Method: as §1

ATR = ATR (Homo sapiens (Human), UniProt Q13535)
Method: as §1

MAP2K6 = MAP2K6 (Homo sapiens (Human), UniProt P52564)
Method: as §1

SNRK = SNRK (Homo sapiens (Human), UniProt Q9NRH2)
Method: as §1

HPK1 = HPK1 (Homo sapiens (Human), UniProt Q92918)
Method: as §1

STLK5 = STLK5 (Homo sapiens (Human), UniProt Q7RTN6)
Method: as §1

NuaK2 = NuaK2 (Homo sapiens (Human), UniProt Q9H093)
Method: as §1

MARK3 = MARK3 (Homo sapiens (Human), UniProt P27448)
Sequence of MARK3 (P27448 whole entry): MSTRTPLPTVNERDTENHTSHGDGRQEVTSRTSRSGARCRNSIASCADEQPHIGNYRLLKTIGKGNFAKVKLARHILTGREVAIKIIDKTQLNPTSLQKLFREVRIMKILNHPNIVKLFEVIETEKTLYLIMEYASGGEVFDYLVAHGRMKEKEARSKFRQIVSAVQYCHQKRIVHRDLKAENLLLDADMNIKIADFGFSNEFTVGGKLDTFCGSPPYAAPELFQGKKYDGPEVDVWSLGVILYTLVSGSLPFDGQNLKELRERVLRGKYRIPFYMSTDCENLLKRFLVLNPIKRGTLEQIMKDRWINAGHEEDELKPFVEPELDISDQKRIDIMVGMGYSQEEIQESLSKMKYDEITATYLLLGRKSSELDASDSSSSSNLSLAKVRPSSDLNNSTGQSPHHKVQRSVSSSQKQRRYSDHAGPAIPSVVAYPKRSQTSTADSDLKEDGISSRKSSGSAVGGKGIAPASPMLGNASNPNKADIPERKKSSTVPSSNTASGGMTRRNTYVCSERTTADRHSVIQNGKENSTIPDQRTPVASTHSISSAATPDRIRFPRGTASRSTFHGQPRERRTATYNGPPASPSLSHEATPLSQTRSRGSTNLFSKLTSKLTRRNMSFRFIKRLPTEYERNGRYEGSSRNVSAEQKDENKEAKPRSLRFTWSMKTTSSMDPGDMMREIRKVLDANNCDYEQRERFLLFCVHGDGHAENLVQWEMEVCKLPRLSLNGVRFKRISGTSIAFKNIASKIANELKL
Method: as §1

MAP3K4 = MAP3K4 (Homo sapiens (Human), UniProt Q9Y6R4)
Sequence of MAP3K4 (Q9Y6R4 whole entry): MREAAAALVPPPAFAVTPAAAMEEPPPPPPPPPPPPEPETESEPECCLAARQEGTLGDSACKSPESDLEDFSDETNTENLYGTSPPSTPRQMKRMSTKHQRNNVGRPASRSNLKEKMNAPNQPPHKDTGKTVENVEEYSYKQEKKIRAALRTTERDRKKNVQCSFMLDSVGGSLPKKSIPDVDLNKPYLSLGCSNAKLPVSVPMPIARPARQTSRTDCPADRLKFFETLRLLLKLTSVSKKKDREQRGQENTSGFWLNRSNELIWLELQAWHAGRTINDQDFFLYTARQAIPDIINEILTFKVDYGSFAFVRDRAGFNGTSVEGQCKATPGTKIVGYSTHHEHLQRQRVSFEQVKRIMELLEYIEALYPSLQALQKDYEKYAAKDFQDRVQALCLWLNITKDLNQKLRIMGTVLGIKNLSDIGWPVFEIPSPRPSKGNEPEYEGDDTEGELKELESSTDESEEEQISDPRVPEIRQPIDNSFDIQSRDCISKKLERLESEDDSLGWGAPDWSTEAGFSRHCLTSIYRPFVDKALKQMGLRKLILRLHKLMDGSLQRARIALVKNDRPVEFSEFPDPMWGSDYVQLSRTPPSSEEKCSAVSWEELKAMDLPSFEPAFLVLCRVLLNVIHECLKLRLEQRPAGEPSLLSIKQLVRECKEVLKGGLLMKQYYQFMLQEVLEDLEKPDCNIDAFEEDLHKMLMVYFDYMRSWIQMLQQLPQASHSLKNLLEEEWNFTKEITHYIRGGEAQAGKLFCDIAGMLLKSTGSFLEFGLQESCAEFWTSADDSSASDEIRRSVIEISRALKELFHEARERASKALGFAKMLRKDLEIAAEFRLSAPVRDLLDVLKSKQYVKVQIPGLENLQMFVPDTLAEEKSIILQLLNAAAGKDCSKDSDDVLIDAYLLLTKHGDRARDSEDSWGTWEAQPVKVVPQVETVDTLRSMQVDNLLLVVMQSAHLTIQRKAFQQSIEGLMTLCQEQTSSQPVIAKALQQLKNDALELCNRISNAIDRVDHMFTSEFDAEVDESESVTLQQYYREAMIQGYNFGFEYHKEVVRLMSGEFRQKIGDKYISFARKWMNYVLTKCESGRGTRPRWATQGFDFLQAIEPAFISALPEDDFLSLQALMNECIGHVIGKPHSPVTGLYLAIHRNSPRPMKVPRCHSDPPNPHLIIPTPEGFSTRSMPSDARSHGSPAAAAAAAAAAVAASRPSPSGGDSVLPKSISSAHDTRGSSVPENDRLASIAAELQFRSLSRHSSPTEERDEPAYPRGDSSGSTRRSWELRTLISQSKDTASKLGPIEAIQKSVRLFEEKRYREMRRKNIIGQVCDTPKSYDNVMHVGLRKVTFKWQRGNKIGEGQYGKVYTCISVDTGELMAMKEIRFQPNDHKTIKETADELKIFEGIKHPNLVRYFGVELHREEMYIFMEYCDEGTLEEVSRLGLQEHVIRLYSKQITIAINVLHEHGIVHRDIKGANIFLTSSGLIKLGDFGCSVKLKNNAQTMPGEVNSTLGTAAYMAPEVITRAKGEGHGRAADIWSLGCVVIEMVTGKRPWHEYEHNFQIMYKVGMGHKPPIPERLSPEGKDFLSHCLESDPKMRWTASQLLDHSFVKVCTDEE
Method: as §1

NEK4 = NEK4 (Homo sapiens (Human), UniProt P51957)
Method: as §1

MARK4 = MARK4 (Homo sapiens (Human), UniProt Q96L34)
Method: as §1

JAK1 domain1 = JAK1 domain1 (Homo sapiens (Human), UniProt P23458)
Method: as §1

BRAF = BRAF (Homo sapiens (Human), UniProt P15056)
Method: as §1

MASTL = MASTL (Homo sapiens (Human), UniProt Q96GX5)
Method: as §1

PKCi = PKCi (Homo sapiens (Human), UniProt P41743)
Method: as §1

PEK = PEK (Homo sapiens (Human), UniProt Q9NZJ5)
Method: as §1

MARK1, MARK2 = test system: MARK1, MARK2
Method: as §1

PIP4K2A = PIP4K2A (Homo sapiens (Human), UniProt P48426)
Sequence of PIP4K2A (P48426 whole entry): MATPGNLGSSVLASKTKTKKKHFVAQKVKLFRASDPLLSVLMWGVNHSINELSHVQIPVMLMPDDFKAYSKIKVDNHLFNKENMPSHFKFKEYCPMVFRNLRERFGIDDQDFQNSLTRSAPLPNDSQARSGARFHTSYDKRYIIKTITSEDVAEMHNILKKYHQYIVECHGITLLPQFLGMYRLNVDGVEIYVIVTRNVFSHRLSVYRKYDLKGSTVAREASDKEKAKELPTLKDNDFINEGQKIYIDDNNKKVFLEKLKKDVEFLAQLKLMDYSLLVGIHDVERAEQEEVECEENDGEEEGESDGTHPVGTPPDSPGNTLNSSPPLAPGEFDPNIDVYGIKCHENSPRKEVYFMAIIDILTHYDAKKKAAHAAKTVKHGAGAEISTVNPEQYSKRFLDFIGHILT
Method: as §1

NuaK1 = NuaK1 (Homo sapiens (Human), UniProt O60285)
Sequence of NuaK1 (O60285 whole entry): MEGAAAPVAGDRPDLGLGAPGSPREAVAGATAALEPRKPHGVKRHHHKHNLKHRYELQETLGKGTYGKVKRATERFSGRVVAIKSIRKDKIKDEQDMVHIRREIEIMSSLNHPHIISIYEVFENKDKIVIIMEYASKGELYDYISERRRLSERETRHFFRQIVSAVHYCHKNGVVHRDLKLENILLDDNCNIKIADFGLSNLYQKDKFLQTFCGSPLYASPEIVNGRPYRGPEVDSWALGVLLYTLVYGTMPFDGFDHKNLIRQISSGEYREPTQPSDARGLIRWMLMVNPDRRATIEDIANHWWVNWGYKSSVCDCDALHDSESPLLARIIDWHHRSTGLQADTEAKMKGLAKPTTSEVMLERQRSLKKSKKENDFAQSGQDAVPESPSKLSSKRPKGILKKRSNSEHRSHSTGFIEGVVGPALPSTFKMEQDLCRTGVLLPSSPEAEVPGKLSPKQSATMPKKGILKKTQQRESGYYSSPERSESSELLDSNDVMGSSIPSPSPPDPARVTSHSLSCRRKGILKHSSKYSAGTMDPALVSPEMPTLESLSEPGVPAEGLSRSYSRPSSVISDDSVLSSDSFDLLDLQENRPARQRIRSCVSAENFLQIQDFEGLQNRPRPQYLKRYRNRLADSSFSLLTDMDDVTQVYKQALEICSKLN
Method: as §1

p70S6K = p70S6K (Homo sapiens (Human), UniProt P23443)
Method: as §1

FER = FER (Homo sapiens (Human), UniProt P16591)
Method: as §1

AurB = AurB (Homo sapiens (Human), UniProt Q96GD4)
Sequence of AurB (Q96GD4 whole entry): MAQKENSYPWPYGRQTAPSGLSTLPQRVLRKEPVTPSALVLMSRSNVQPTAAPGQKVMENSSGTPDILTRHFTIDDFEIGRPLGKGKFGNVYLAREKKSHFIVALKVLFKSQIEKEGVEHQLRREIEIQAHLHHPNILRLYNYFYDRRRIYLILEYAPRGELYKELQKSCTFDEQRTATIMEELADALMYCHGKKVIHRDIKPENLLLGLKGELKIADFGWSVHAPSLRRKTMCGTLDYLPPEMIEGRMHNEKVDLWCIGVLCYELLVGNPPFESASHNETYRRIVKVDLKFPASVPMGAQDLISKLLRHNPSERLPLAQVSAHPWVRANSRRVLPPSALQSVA
Method: as §1

CHK2 = CHK2 (Homo sapiens (Human), UniProt O96017)
Method: as §1

TBK1 = TBK1 (Homo sapiens (Human), UniProt Q9UHD2)
Method: as §1

MAP3K2, MAP3K3 = test system: MAP3K2, MAP3K3
Method: as §1

CK1g3 = CK1g3 (Homo sapiens (Human), UniProt Q9Y6M4)
Sequence of CK1g3 (Q9Y6M4 whole entry): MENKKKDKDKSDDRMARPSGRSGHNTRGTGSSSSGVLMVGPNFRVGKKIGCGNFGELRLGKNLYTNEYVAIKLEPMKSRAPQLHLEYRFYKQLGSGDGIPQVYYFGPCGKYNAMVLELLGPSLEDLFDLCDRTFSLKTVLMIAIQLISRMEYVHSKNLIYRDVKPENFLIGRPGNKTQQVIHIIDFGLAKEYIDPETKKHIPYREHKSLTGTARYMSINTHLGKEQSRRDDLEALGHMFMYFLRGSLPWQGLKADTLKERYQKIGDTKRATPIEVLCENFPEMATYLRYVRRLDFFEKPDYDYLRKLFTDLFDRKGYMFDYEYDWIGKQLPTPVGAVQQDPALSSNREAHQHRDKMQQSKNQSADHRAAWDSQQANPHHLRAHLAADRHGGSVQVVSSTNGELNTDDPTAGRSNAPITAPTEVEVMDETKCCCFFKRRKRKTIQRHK
Method: as §1

[1] = test system: CaMK2a, CaMK2b, CaMK2d, CaMK2g
Method: as §1

MAST3 = MAST3 (Homo sapiens (Human), UniProt O60307)
Method: as §1

[2] = range class, read-out: % inhibition

Q: How did the inhibition at 10 µM (MAP3K1; [2]) turn out when `Nc1ncc(-c2ccc(NS(=O)(=O)C3CC3)cc2OC2CCCCC2)cc1-c1ccc2c(c1)CCNC2=O` [Compound I-65, N-(4-(6-amino-5-(1-oxo-1,2,3,4-tetrahydroisoquinolin-6-yl)pyridin-3-yl)-3-(cyclohexyloxy)phenyl) cyclopropanesulfonamide] was run?
A: 35 to 40%

Q: What about the inhibition at 10 µM (MAP3K1; read-out: inhibition (10 μM)) of the same compound?
A: 48.5%

Q: What about the inhibition at 10 µM (NEK9; [2]) of the same compound?
A: 0%

Q: And the inhibition at 10 µM (NEK9; read-out: inhibition (10 μM))?
A: -27.8%

Q: And the “% inhibition” value (AurA, AurB, AurC; 10 μM, range class)?
A: 35-40%

Q: What about the “inhibition (10 μM)” value (AurA, AurB, AurC) of the same compound?
A: 42.9%

Q: What about the inhibition at 10 µM (ZAK; [2]) of the same compound?
A: 35 to 40%

Q: And the inhibition at 10 µM (ZAK; read-out: inhibition (10 μM))?
A: 36.2%

Q: What about the inhibition at 10 µM (NEK3; [2]) of the same compound?
A: 0%

Q: And the inhibition at 10 µM (NEK3; read-out: inhibition (10 μM))?
A: -18.4%

Q: And the inhibition at 10 µM (RSK2 domain1; [2])?
A: 75 to 90%

Q: What about the inhibition at 10 µM (RSK2 domain1; read-out: inhibition (10 μM)) of the same compound?
A: 79.4%

Q: And the inhibition at 10 µM (ATR; [2])?
A: 0%

Q: And the inhibition at 10 µM (ATR; read-out: inhibition (10 μM))?
A: 28.1%

Q: What about the inhibition at 10 µM (MAP2K6; [2]) of the same compound?
A: 0%

Q: And the inhibition at 10 µM (MAP2K6; read-out: inhibition (10 μM))?
A: -15%

Q: And the inhibition at 10 µM (SNRK; [2])?
A: 0%

Q: What about the inhibition at 10 µM (SNRK; read-out: inhibition (10 μM)) of the same compound?
A: 1.1%

Q: And the inhibition at 10 µM (HPK1; [2])?
A: > 90%

Q: And the inhibition at 10 µM (HPK1; read-out: inhibition (10 μM))?
A: 95.5%

Q: What about the inhibition at 10 µM (STLK5; [2]) of the same compound?
A: 0%

Q: And the inhibition at 10 µM (STLK5; read-out: inhibition (10 μM))?
A: -38.6%

Q: And the inhibition at 10 µM (NuaK2; [2])?
A: 35 to 40%

Q: And the inhibition at 10 µM (NuaK2; read-out: inhibition (10 μM))?
A: 48.7%

Q: What about the inhibition at 10 µM (MARK3; [2]) of the same compound?
A: 0%

Q: What about the inhibition at 10 µM (MARK3; read-out: inhibition (10 μM)) of the same compound?
A: -22.7%

Q: What about the inhibition at 10 µM (MAP3K4; [2]) of the same compound?
A: 0%

Q: And the inhibition at 10 µM (MAP3K4; read-out: inhibition (10 μM))?
A: 10.3%

Q: And the inhibition at 10 µM (NEK4; [2])?
A: 0%

Q: And the inhibition at 10 µM (NEK4; read-out: inhibition (10 μM))?
A: 23.7%

Q: What about the inhibition at 10 µM (MARK4; [2]) of the same compound?
A: 0%

Q: What about the inhibition at 10 µM (MARK4; read-out: inhibition (10 μM)) of the same compound?
A: -1.1%

Q: And the inhibition at 10 µM (JAK1 domain1; [2])?
A: 0%

Q: And the inhibition at 10 µM (JAK1 domain1; read-out: inhibition (10 μM))?
A: 2.1%

Q: What about the inhibition at 10 µM (BRAF; [2]) of the same compound?
A: 0%

Q: And the inhibition at 10 µM (BRAF; read-out: inhibition (10 μM))?
A: -41.5%

Q: What about the inhibition at 10 µM (MASTL; [2]) of the same compound?
A: 0%

Q: What about the inhibition at 10 µM (MASTL; read-out: inhibition (10 μM)) of the same compound?
A: -9.6%

Q: And the inhibition at 10 µM (PKCi; [2])?
A: 0%

Q: And the inhibition at 10 µM (PKCi; read-out: inhibition (10 μM))?
A: -41.2%

Q: And the inhibition at 10 µM (PEK; [2])?
A: 0%

Q: What about the inhibition at 10 µM (PEK; read-out: inhibition (10 μM)) of the same compound?
A: -12.9%

Q: What about the “% inhibition” value (MARK1, MARK2; 10 μM, range class) of the same compound?
A: 0.0%

Q: And the “inhibition (10 μM)” value (MARK1, MARK2)?
A: −29.4%

Q: And the inhibition at 10 µM (PIP4K2A; [2])?
A: 0%

Q: What about the inhibition at 10 µM (PIP4K2A; read-out: inhibition (10 μM)) of the same compound?
A: -4.6%

Q: What about the “inhibition (10 μM)” value (NuaK1) of the same compound?
A: 61.5%

Q: And the inhibition at 10 µM (NuaK1; [2])?
A: 50 to 75%

Q: What about the inhibition at 10 µM (NuaK1; read-out: inhibition (10 μM)) of the same compound?
A: 66.8%

Q: What about the inhibition at 10 µM (p70S6K; [2]) of the same compound?
A: 0%

Q: And the inhibition at 10 µM (p70S6K; read-out: inhibition (10 μM))?
A: 11.1%

Q: And the inhibition at 10 µM (FER; [2])?
A: 50 to 75%

Q: And the inhibition at 10 µM (FER; read-out: inhibition (10 μM))?
A: 63.6%

Q: What about the inhibition at 10 µM (AurB; [2]) of the same compound?
A: 0%

Q: And the inhibition at 10 µM (AurB; read-out: inhibition (10 μM))?
A: 21%

Q: What about the inhibition at 10 µM (CHK2; [2]) of the same compound?
A: 0%

Q: What about the inhibition at 10 µM (CHK2; read-out: inhibition (10 μM)) of the same compound?
A: 11.2%

Q: And the inhibition at 10 µM (TBK1; [2])?
A: 50 to 75%

Q: And the inhibition at 10 µM (TBK1; read-out: inhibition (10 μM))?
A: 74.6%

Q: What about the “% inhibition” value (MAP3K2, MAP3K3; 10 μM, range class) of the same compound?
A: 0.0%

Q: And the “inhibition (10 μM)” value (MAP3K2, MAP3K3)?
A: 23.3%

Q: And the inhibition at 10 µM (CK1g3; [2])?
A: 75 to 90%

Q: What about the inhibition at 10 µM (CK1g3; read-out: inhibition (10 μM)) of the same compound?
A: 87.2%

Q: And the “% inhibition” value ([1]; 10 μM, range class)?
A: 0.0%

Q: What about the “inhibition (10 μM)” value [1] of the same compound?
A: 12.8%

Q: And the inhibition at 10 µM (MAST3; [2])?
A: 0%

Q: What about the inhibition at 10 µM (MAST3; read-out: inhibition (10 μM)) of the same compound?
A: -7.5%
